These results are taken from US11213527B2, “Inhibitory effect of low molecular weight compound on cancer and fibrosis” (NATIONAL UNIVERSITY CORPORATION TOTTORI UNIVERSITY, priority 2014, dated 2022).

Test [1] has as its system liver fibrosis. Put plainly: Liver disease model mice (carbon tetrachloride-induced liver fibrosis). It counts as in vivo, C57BL/6 male mice. Particulars: glycyrrhizin 150 mg/kg, IC-2 10.6 or 21.2 mg/kg intraperitoneally 3 times a week for 4 weeks, vs vehicle. How it is done:
First, 7-week-old C57BL/6 male mice (Japan SLC, Shizuoka, Japan) were subject to 1-week preparatory rearing. Among them, healthy mice were used. The mice were housed in an animal cage at a room temperature of 22±1° C. and a humidity of 50±5% throughout the preparatory rearing and experimental period and were given ad libitum access to food and water.
A microsyringe (ITO CORPORATION, Shizuoka, Japan) was used to intraperitoneally administer carbon tetrachloride (CCl4: Wako Pure Chemical Industries, Ltd., Osaka, Japan) at 0.2 ml/kg, 3 times a week, for 4, 6, or 8 weeks. Carbon tetrachloride was dissolved into cone oil (Wako Pure Chemical Industries, Ltd.) at a concentration of 10%. The resulting solution was used. After this carbon tetrachloride solution was administered for 4 weeks, the mice were divided into a vehicle administration group, a glycyrrhizin administration group, an ICG-001 administration group, and an IC-2 administration group. Then, a microsyringe was used to intraperitoneally administer, 3 times a week for 4 weeks, carbon tetrachloride and a drug solution prepared in accordance with the following process. Note that the carbon tetrachloride and the drug solution were alternately administered with one-day interval.
Glycyrrhizin (TOKYO CHEMICAL INDUSTRY CO., LTD., Tokyo, Japan) was dissolved in physiological saline. The solution was prepared at a concentration of 30 mg/ml while the pH was adjusted to 7.0 with 4 M NaOH liquid. IC-2 and ICG-001 (AdooQ BioScience, California, USA) were each dissolved in a WellSolve (Celeste Corporation, Tokyo, Japan) at a concentration of 40 mg/ml and 10 mg/ml, respectively. Next, the mixture was heated for 10 min in a hot water bath at 60° C. and was then completely dissolved. A 9-fold volume of physiological saline was added to the WellSolve solution in which the above drugs had each been dissolved. […] Note that an IC-2 dosage was determined on the basis of an effective concentration in vitro. […]

In test [2] the test system is cancer stem cells. Conditions: Fbxw7-deficient model mice; cited from earlier work.

Consider `CC1(C)[C@@H](O[C@H]2O[C@H](C(=O)O)[C@@H](O)[C@H](O)[C@H]2O[C@@H]2O[C@H](C(=O)O)[C@@H](O)[C@H](O)[C@H]2O)CC[C@]2(C)[C@H]3C(=O)C=C4[C@@H]5C[C@@](C)(C(=O)O)CC[C@]5(C)CC[C@@]4(C)[C@]3(C)CC[C@@H]12` [glycyrrhizin, Glycyrrhizin, reference compound], for which the content of hydroxyproline entry in test [1] was “reduced content of hydroxyproline”.
Regarding `Cc1ccc(NC(=O)c2ccc(CN3CCN(C)CC3)cc2)cc1Nc1nccc(-c2cccnc2)n1` [imatinib], the “killing of cancer stem cells” value in test [2] is given as “cancer stem cells were killed”.
